This note sets out measurements from patent EP4458977A1, “SELF-ASSEMBLING PEPTIDE AMPHIPHILES AS RETROVIRAL TRANSDUCTION ENHANCERS” (Max-Planck-Gesellschaft zur Förderung der Wissenschaften …, priority 2023, dated 2024).

Series [1] in a line: ATR-FT-IR determination of β-sheet content. Format: physicochemical. The conditions noted are these: for β-sheet amount: 1 mg/mL in PBS lyophilized, integral at 1630 cm^-1 relative to 1650-1700 cm^-1; for β-sheet content / %: peak integration of parallel β-sheet at 1630 cm-1, 2nd derivative of ATR-IR spectra. In outline:
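From second-derivative spectra, β-sheet amount is the 1630 cm-1 integral over the 1650-1700 cm-1 (native) region. Spectra were taken on solid, lyophilized fibrils via diamond-crystal ATR, averaging 64 scans at 2 cm^-1 resolution.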

Series [2] can be described thus: TEM of peptide assemblies (fibril formation / assembly). The format is physicochemical. The conditions noted are these: for TEM morphology (in words): 1 mg/mL in PBS; for Assembly without hydrophob residue: corresponding peptide without hydrophobic moiety; for Assembly: peptide amphiphile. The procedure, abridged: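 Peptides predissolved in DMSO at 10 mg/mL (stock), diluted in PBS to 650 µM or 1 mg/mL final and incubated 1 d at rt (20–25 °C) to form fibrils. Other concentrations obtained by diluting preformed fibrils; assemblies imaged by TEM.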

The nature of series [3]: Fluorescence microscopy of ThT-stained fibrils (µm-sized aggregates). The format is physicochemical. Conditions: for fluorescent, µm-sized aggregates (ThT staining): 1 mg/mL stained with 50 µM ThT. In outline: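 Fibrils (1 mg mL^-1) mixed 1:9 with 50 µM ThT, giving 0.1 mg mL^-1 stained fibrils on glass. Imaged under 10x air objective with excitation 480/40 nm and emission 527/30 nm. Fibrils called distinct when no visible structures appeared in fluorescence or brightfield.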

For the next series, the system named is HIV-1. Conditions: for Infectivity enhancing N fold at 1.3 µM: relative to virus only; for enhancement of HIV-1 infection / transduction (in words): 6.5 µM, 1.3 µM, 0.26 µM.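 On all read-outs here: TZM-bl reporter cells exposed to HIV-1 with peptide fibrils, infection read out as β-galactosidase luminescence, compared with virus alone.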
A short description of series [4]: Zeta-potential measurement (dynamic light scattering). Format: physicochemical.
The subject of the next series is HeLa cells. Nature of the series: Confocal laser scanning microscopy and degradation study with PA library and HeLa cells. The format is cell-based. The conditions noted are these: for association with cellular membranes: 2 µg added to 20.000 HeLa cells, 30 min; for degradability (in words) / Degradability / % (rel. to initial particles > 10 µm^2): HeLa cells; for degradability (in words): 3 days; for Degradability / % (rel. to initial particles > 10 µm^2): 3 d relative to 30 min; for aggregate number decreases / degraded in presence of HeLa cells within 3 days: d3 relative to d0. The procedure, abridged:
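HeLa cells (20,000/well) got Proteostat-stained PAs (2 µg peptide per 20.000 cells) with Hoechst nuclear stain, 30 min at 37°C, PBS-washed, then held 3 d at 37°C unwashed. Confocal imaging at d0 and d3 counted aggregates >10 µm^2 in 1008 × 1008 µm, three technical replicates. Degradation taken as d3/d0 aggregate number.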

The nature of series [5]: Zeta-potential measurement (dynamic light scattering). Format: physicochemical. Conditions: for Zeta Potential / mV: 1 mg/mL, PBS. Here is the method:
Zeta-potential: 60 µL of the peptides (1 mg mL-1) were diluted in 600 µL, 1 mM KCI solution and placed in a disposable folded capillary cuvette. All zeta-potential measurements were conducted by dynamic light scattering technology (Zetasizer, Malvern Instruments) and in triplicates for each sample. The derived count rate of the zeta potential measurement was used as information on the light scattering intensity and turbidity of the sample as a further indicator for microscopic aggregation.

Series [6] can be described thus: Thioflavin T (ThT) fluorescence assay. The format is physicochemical. Also noted: key to ThT: + = ThT active; - = no ThT fluorescence observed. Conditions: ThT fluorescence; 1 mg/mL, PBS. The procedure: Transmission electron microscopy (TEM) measurements, Thioflavin (ThT), zeta-potential measurements for fibril characterization were prepared and conducted according to prior art procedures. […] Fibrils were defined as distinct, if no visible structures could be identified in fluorescence and brightfield microscopy. A peptide fibril was considered as ThT-active if the fluorescence intensity was at least twice as strong compared to the control (PBS containing 10% DMSO).

Several values for one entry are separate records, joined by “and”; a condition that tells them apart may be missing. Equal values may be shown once. Entries after “also recorded” stand apart in the source; their conditions may differ. Where a SMILES comes first, the peptide text is derived from it. Where no end group is shown, it is not given here. The star is where a group is joined. X2 = CC/C=C\C/C=C\C/C=C\CCCCCCCC(=O)*; Palmitoyl = CCCCCCCCCCCCCCCC(=O)*

Description for HIV-1: HIV-1 Infection Assay with TZM-bl cells: The effect of peptide fibrils on HIV-1 infection was studied via a luminescence assay for β-galactosidase, which was reported by TZM-bl cells upon infection. The HIV-1 infection assay was conducted in three technical replicates and repeated in three independent experiments unless stated otherwise.

Turning to `CCCCCCCCCCCCCCCC(=O)N[C@@H](C)C(=O)NCC(=O)NCC(=O)N[C@@H](CCCNC(=N)N)C(=O)N[C@H](C(=O)N[C@@H](CCCCN)C(N)=O)C(C)C` [Pat18, C16-AGGRVK-NH2] (Palmitoyl-AGGRVK-NH2), the β-sheet amount in series [1] turned out to be 56%. Also, in series [2], the “TEM morphology (in words)” value is recorded as “fibrillar morphologies”, the “Assembly without hydrophob residue” value is given as “No” and the Assembly result is “Yes”. Also, in series [3], the “fluorescent, µm-sized aggregates (ThT staining)” value (from here on “fluorescent … (ThT staining)”) is given as “no fluorescent, µm-sized aggregates”. In addition, in the series on HIV-1, the “enhances infectivity at 1.3 µM concentration, times more efficient compared to virus only infection” value turned out to be 3 times and the “Infectivity enhancing N fold at 1.3 µM” value came to 3±1 N fold. For the same compound, the “Zeta-Potential / mV” value in series [4] worked out at 15.9 mV.
On to `CCCCCCCCCCCCCCCC(=O)N[C@@H](C)C(=O)N[C@@H](CCCCN)C(=O)N[C@@H](C)C(=O)N[C@H](C(=O)NCC(=O)N[C@@H](CCCCN)C(N)=O)C(C)C` [Pat31, C16-AKAVGK-NH2] (Palmitoyl-AKAVGK-NH2), for which the β-sheet amount in series [1] was 43%. Also, in series [2], the “TEM morphology (in words)” value is given as “fibrillar morphologies”, the “Assembly without hydrophob residue” value is “No” and the Assembly entry is on record as “Yes”. In addition, in the series with HeLa cells, the “association with cellular membranes” value was “association with cellular membranes”, the “degradability (in words)” value is on record as “degradable PA”, the “Degradability / % (rel. to initial particles > 10 µm^2)” value (shortened to “Degradability / %”) was 89% and the “aggregate number decreases / degraded in presence of HeLa cells within 3 days” value (shortened to “aggregate number decreases / degraded”) came to 89%. Moreover, in series [3], the “fluorescent … (ThT staining)” value was “fluorescent, µm-sized aggregates”. Moreover, in the series with HIV-1, the “enhances infectivity at 1.3 µM concentration, times more efficient compared to virus only infection” value is listed as 6 times; the “Infectivity enhancing N fold at 1.3 µM” value is 6 N fold and 6±3 N fold. Also, the “Zeta-Potential / mV” value in series [4] was determined as 19.7 mV.
Turning to VVVAAAEEE-NH2 [P3], the “Zeta Potential / mV” value in series [5] is given as -21.2 ± 1.5 mV. Besides, in series [6], the ThT result is “-”. The “β-sheet content / %” value in series [1] worked out at 46%. Besides, the “TEM morphology (in words)” value in series [2] is on record as “amorphous aggregates; also recorded: non-fibrillar amorphous aggregates”. Further, in series [3], the “formation of µm-sized aggregates in aqueous medium / PBS (in words)” value (shortened to “formation … in aqueous medium / PBS (in words)”) is given as “does not form µm-sized aggregates in PBS”.
As to FQFKFKC-NH2 [P2, FQFKFKC-NH2], the “Zeta Potential / mV” value in series [5] was “+10.1 ± 3.0 mV”. Also, in series [6], the ThT result was “-”. In addition, the “β-sheet content / %” value in series [1] worked out at 46%. Moreover, the “TEM morphology (in words)” value in series [2] is “Formation of fibrils; also recorded: twisted fibrils”. In addition, the “formation … in aqueous medium / PBS (in words)” value in series [3] is on record as “does not form µm-sized aggregates in PBS”. For the same compound, in the series with HIV-1, the “enhancement of HIV-1 infection / transduction (in words)” value is “inactive”.
`CCCCCCCCCCCCCCCC(=O)N[C@@H](Cc1c[nH]c2ccccc12)C(=O)N[C@@H](CCC(=O)O)C(=O)N[C@@H](C)C(=O)N[C@@H](CC(C)C)C(=O)N[C@@H](CCCCN)C(=O)N[C@@H](CCCCN)C(N)=O` [Pat17, C16-WEALKK-NH2] (Palmitoyl-WEALKK-NH2) displayed a β-sheet amount in series [1] of 38%. Also, in series [2], the “TEM morphology (in words)” value was “not forming fibrils; also recorded: amorphous aggregate morphology”, the “Assembly without hydrophob residue” value was “No” and the Assembly result was “No”. For the same compound, the “association with cellular membranes” value in the series with HeLa cells is given as “no association with cellular membranes”. Moreover, in series [3], the “fluorescent … (ThT staining)” value is recorded as “fluorescent, µm-sized aggregates”. Moreover, in the series on HIV-1, the “infectivity enhancement at 1.3 µM concentration compared to virus only infection (in words)” value is recorded as “does not enhance infectivity”, the “enhancement of HIV-1 infection / transduction (in words)” value was “no infectivity enhancement can be observed” and the “Infectivity enhancing N fold at 1.3 µM” value amounted to 1±0 N fold.
`CCCCCCCCCCCCCCCC(=O)N[C@@H](CC(C)C)C(=O)N[C@@H](CC(N)=O)C(=O)NCC(=O)NCC(=O)N[C@H](C(=O)N[C@@H](CCCCN)C(=O)N[C@@H](CCCCN)C(N)=O)C(C)C` [Pat19, C16-LNGGVKK-NH2] (Palmitoyl-LNGGVKK-NH2) showed a β-sheet amount in series [1] of 34%. In addition, in series [2], the “TEM morphology (in words)” value was “fibrillar morphologies”, the “Assembly without hydrophob residue” value is reported as “No” and the Assembly entry is “Yes”. Besides, in the series on HeLa cells, the “association with cellular membranes” value is “association with cellular membranes”, the “degradability (in words)” value is recorded as “degradable PA”, the “Degradability / %” value turned out to be 48% and the “aggregate number decreases / degraded” value stood at 48%. Also, the “fluorescent … (ThT staining)” value in series [3] is listed as “fluorescent, µm-sized aggregates”. Besides, in the series on HIV-1, the “enhances infectivity at 1.3 µM concentration, times more efficient compared to virus only infection” value is listed as 6 times; the “Infectivity enhancing N fold at 1.3 µM” value was 6 N fold and 6±1 N fold. Moreover, the “Zeta-Potential / mV” value in series [4] is recorded as 19.4 mV.
Regarding VVVAAAKKK-NH2 [P1], the “Zeta Potential / mV” value in series [5] was -2.3 ± 0.4 mV. In addition, in series [6], the ThT result is “-”. Besides, the “β-sheet content / %” value in series [1] was found to be 48%. In series [2], the “TEM morphology (in words)” value was “amorphous aggregates; also recorded: non-fibrillar amorphous aggregates”. The “formation … in aqueous medium / PBS (in words)” value in series [3] is recorded as “does not form µm-sized aggregates in PBS”. Also, the “enhancement of HIV-1 infection / transduction (in words)” value in the series with HIV-1 was “inactive”.
Compound `CCCCCCCCCCCCCCCC(=O)N[C@@H](CC(C)C)C(=O)N[C@@H](CC(C)C)C(=O)N[C@@H](CC(C)C)C(=O)N[C@@H](CCCCN)C(=O)N[C@@H](CCCCN)C(N)=O` [Pat23, C16-LLLKK-NH2] (Palmitoyl-LLLKK-NH2) registered a β-sheet amount in series [1] of 46%. For the same compound, in series [2], the “TEM morphology (in words)” value was “fibrillar morphologies”, the “Assembly without hydrophob residue” value was “No” and the Assembly entry is “Yes”. Besides, in the series on HeLa cells, the “association with cellular membranes” value is reported as “association with cellular membranes”, the “degradability (in words)” value is on record as “moderately degradable PA”, the “Degradability / %” value was 27% and the “aggregate number decreases / degraded” value is recorded as 27%. Moreover, the “fluorescent … (ThT staining)” value in series [3] is “fluorescent, µm-sized aggregates”. Further, in the series on HIV-1, the “enhances infectivity at 1.3 µM concentration, times more efficient compared to virus only infection” value was 3 times and the “Infectivity enhancing N fold at 1.3 µM” value amounted to 3±0 N fold. In series [4], the “Zeta-Potential / mV” value came out at 20.9 mV.
Regarding `CC/C=C\C/C=C\C/C=C\CCCCCCCC(=O)N[C@H](C(=O)N[C@H](C(=O)N[C@H](C(=O)N[C@@H](C)C(=O)N[C@@H](C)C(=O)N[C@@H](C)C(=O)N[C@@H](CCCCN)C(=O)N[C@@H](CCCCN)C(=O)N[C@@H](CCCCN)C(N)=O)C(C)C)C(C)C)C(C)C` [Pat9] (X2-VVVAAAKKK-NH2), the “zeta-potential (in words)” value in series [5] is “almost neutral zeta-potential”. In series [2], the “TEM morphology (in words)” value is reported as “failed to form fibrils in aqueous medium”, the “Assembly without hydrophob residue” value is given as “No” and the Assembly result is “No”. The “Infectivity enhancing N fold at 1.3 µM” value in the series on HIV-1 stood at 1±0 N fold.
Regarding `CCCCCCCCCCCCCCCC(=O)N[C@@H](CCCCN)C(=O)NCC(=O)N[C@H](C(=O)N1CCC[C@H]1C(=O)NCC(=O)N[C@H](C(=O)NCC(=O)N[C@@H](CCCCN)C(N)=O)C(C)C)C(C)C` [Pat25] (Palmitoyl-KGVPGVGK-NH2), in series [1], the β-sheet amount is given as 0%. In series [2], the “TEM morphology (in words)” value is “not forming fibrils; also recorded: no fibrillar morphologies”, the “Assembly without hydrophob residue” value is on record as “Yes” and the Assembly result is recorded as “No”. Besides, the “association with cellular membranes” value in the series on HeLa cells is given as “no association with cellular membranes”. In addition, the “fluorescent … (ThT staining)” value in series [3] was “fluorescent, µm-sized aggregates”. Moreover, in the series on HIV-1, the “infectivity enhancement at 1.3 µM concentration compared to virus only infection (in words)” value was “do not enhance infectivity”, the “enhancement of HIV-1 infection / transduction (in words)” value is “no infectivity enhancement can be observed” and the “Infectivity enhancing N fold at 1.3 µM” value is 1±0 N fold.
